In US20220380319A1 (Bial - R&D Investments, S.A., priority 2019, published 2022):
Converted amounts (≈) assume the structure as drawn.

How the values were obtained:
[1] = molecular target: T1, acid ceramidase (Homo sapiens, UniProt Q13510); experiment: Acid ceramidase inhibition, biochemical fluorescent assay with cell lysates overexpressing acid ceramidase, substrate Rbm14-12; settings: substrate Rbm14-12 6.3 μM, pH 4.5, 1 hr preincubation at RT
T1 construct: Cell lysates overexpressing acid ceramidase were used as the enzyme source; expressed in transfected cells
T1 sequence (Q13510 22-395): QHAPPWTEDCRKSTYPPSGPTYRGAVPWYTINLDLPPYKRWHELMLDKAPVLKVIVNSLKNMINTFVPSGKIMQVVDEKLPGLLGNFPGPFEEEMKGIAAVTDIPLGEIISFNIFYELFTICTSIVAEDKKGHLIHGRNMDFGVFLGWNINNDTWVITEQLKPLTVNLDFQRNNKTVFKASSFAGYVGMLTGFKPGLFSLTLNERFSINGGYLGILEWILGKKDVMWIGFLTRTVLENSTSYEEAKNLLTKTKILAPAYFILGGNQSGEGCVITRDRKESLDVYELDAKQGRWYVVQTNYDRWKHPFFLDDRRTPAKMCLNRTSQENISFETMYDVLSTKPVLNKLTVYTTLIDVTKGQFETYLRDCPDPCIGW
Summary of the method: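 IC50 derived by four-parameter fitting of fluorescence (ex360 nm, em446 nm) produced after 1 hr in methanol/NaIO4/glycine stop buffer, pH 10.6. Reaction: 6.3 μM Rbm14-12, 1 hr RT, following 1 hr RT compound preincubation with 10 μg overexpressing-cell lysate protein in pH 4.5 NaAC/NaCl buffer.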

[2] = Compound solubility in water

IC50 [1] [nM]	solubility [2] [µg/mL]	Structure (SMILES)
< 200	2.7 (≈ 9.02 µM)	O=C(NCCOc1ccccc1)n1cnc2c(F)cccc21 [Example 73, 4-Fluoro-N-(2-phenoxyethyl)-1H-benzo[d]imidazole-1-carboxamide]
< 200	5.9 (≈ 19.3 µM)	N#Cc1cccc2c1ncn2C(=O)NCCOc1ccccc1 [Example 74, 4-Cyano-N-(2-phenoxyethyl)-1H-benzo[d]imidazole-1-carboxamide]
200 to 1000	27 (≈ 83 µM)	COc1c(-c2cncnc2)ccc2c1ncn2C(=O)NCC(C)C [Example 75, N-isoButyl-4-methoxy-5-(pyrimidin-5-yl)-1H-benzo[d]imidazole-1-carboxamide]
< 200	10 (≈ 27.5 µM)	CC(C)CNC(=O)n1cnc2c(C(F)(F)F)c(-c3cncnc3)ccc21 [Example 76, N-iso-Butyl-5-(pyrimidin-5-yl)-4-(trifluoromethyl)-1H-benzo[d]imidazole-1-carboxamide]
> 1000	32.7 (≈ 92 µM)	CN1CCN(CCNC(=O)n2cnc3cc(C(F)(F)F)ccc32)CC1 [Example 78, N-(2-(4-Methylpiperazin-1-yl)ethyl)-5-(trifluoromethyl)-1H-benzo[d]imidazole-1-carboxamide]
< 200	21.1 (≈ 77.8 µM)	O=C(NCCCC(F)(F)F)n1cnc2ccccc21 [Example 80, N-(4,4,4-Trifluorobutyl)-1H-benzo[d]imidazole-1-carboxamide]
200 to 1000	22.8 (≈ 70.1 µM)	COc1nc2ccc(-c3cncnc3)cc2n1C(=O)NCC(C)C [Example 81a, N-iso-Butyl-2-methoxy-6-(pyrimidin-5-yl)-1H-benzo[d]imidazole-1-carboxamide]
200 to 1000	27 (≈ 83 µM)	COc1nc2cc(-c3cncnc3)ccc2n1C(=O)NCC(C)C [Example 81b, N-iso-butyl-2-methoxy-5-(pyrimidin-5-yl)-1H-benzo[d]imidazole-1-carboxamide]
200 to 1000	24.5 (≈ 75.3 µM)	CCCCNC(=O)n1c(OC)nc2cc(-c3cncnc3)ccc21 [Example 82b, N-Butyl-2-methoxy-5-(pyrimidin-5-yl)-1H-benzo[d]imidazole-1-carboxamide]
200 to 1000	16.9 (≈ 51.9 µM)	COc1nc2cc(-c3cccnc3)cnc2n1C(=O)NCC(C)C [Example 83, N-iso-Butyl-2-methoxy-6-(pyridin-3-yl)-3H-imidazo[4,5-b]pyridine-3-carboxamide]
200 to 1000	0.9 (≈ 2.76 µM)	CCCCNC(=O)n1c(=O)n(C)c2nc(-c3cncnc3)ccc21 [Example 84, N-Butyl-3-methyl-2-oxo-5-(pyrimidin-5-yl)-2,3-dihydro-1H-imidazo[4,5-b]pyridine-1-carboxamide]
< 200	40 (≈ 123 µM)	CCCCNC(=O)n1c(OC)nc2ccc(-c3cncnc3)nc21 [Example 85a, N-Butyl-2-methoxy-5-(pyrimidin-5-yl)-3H-imidazo[4,5-b]pyridine-3-carboxamide]
< 200	26.4 (≈ 89.1 µM)	Cn1c(=O)n(C(=O)NCCc2ccccc2)c2ncccc21 [Example 88, 1-Methyl-2-oxo-N-phenethyl-1,2-dihydro-3H-imidazo[4,5-b]pyridine-3-carboxamide]
< 200	27.6 (≈ 78.3 µM)	CN(C)CCOc1nc2ccccc2n1C(=O)NCCc1ccccc1 [Example 89, 2-(2-(Dimethylamino)ethoxy)-N-phenethyl-1H-benzo[d]imidazole-1-carboxamide]
< 200	7 (≈ 21.6 µM)	CCOc1nc2ncccc2n1C(=O)NCCCc1ccccc1 [Example 91a, 2-Ethoxy-N-(3-phenylpropyl)-1H-imidazo[4,5-b]pyridine-1-carboxamide]
< 200	21.1 (≈ 65 µM)	CCOc1nc2cccnc2n1C(=O)NCCCc1ccccc1 [Example 91b, 2-ethoxy-N-(3-phenylpropyl)-3H-imidazo[4,5-b]pyridine-3-carboxamide]
< 200	0.05 (≈ 0.145 µM)	CCOc1nc2c(Cl)cccc2n1C(=O)NCCc1ccccc1 [Example 93, 4-Chloro-2-ethoxy-N-phenethyl-1H-benzo[d]imidazole-1-carboxamide]
200 to 1000	11.2 (≈ 38.4 µM)	CCCCNC(=O)n1c(OCC)nc2c(OC)cccc21 [Example 94, N-Butyl-2-ethoxy-4-methoxy-1H-benzo[d]imidazole-1-carboxamide]
> 1000	10.3 (≈ 37.4 µM)	CCCCNC(=O)n1c(OC(C)C)nc2ccccc21 [Example 96, N-Butyl-2-isopropoxy-1H-benzo[d]imidazole-1-carboxamide]
< 200	16 (≈ 61.2 µM)	COc1cccc2c1ncn2C(=O)NCCC(C)C [Example 98, N-iso-Pentyl-4-methoxy-1H-benzo[d]imidazole-1-carboxamide]
200 to 1000	28 (≈ 101 µM)	CCCCNC(=O)n1c(OC)nc2c(OC)cccc21 [Example 100, N-Butyl-2,4-dimethoxy-1H-benzo[d]imidazole-1-carboxamide]
< 200	26.7 (≈ 69.3 µM)	CCCCNC(=O)n1cnc2ccc(N3CCC(N4CCOCC4)CC3)cc21 [Example 101a, N-Butyl-6-(4-morpholinopiperidin-1-yl)-1H-benzo[d]imidazole-1-carboxamide]
< 200	14.3 (≈ 46.2 µM)	CC(C)CCNC(=O)n1cnc2ccc(-c3cncnc3)cc21 [Example 103a, N-iso-Pentyl-6-(pyrimidin-5-yl)-1H-benzo[d]imidazole-1-carboxamide]

Continued, molecule first:

Structure (SMILES)	IC50 [1] [nM]	solubility [2] [µg/mL]
CC(C)CNC(=O)n1cnc2cc(-c3cncnc3)c(C(F)(F)F)cc21 [Example 77a, N-iso-Butyl-5-(pyrimidin-5-yl)-6-(trifluoromethyl)-1H-benzo[d]imidazole-1-carboxamide]	< 200	14.5 (≈ 39.9 µM)
CC(C)CNC(=O)n1cnc2cc(C(F)(F)F)c(-c3cncnc3)cc21 [Example 77b, N-iso-butyl-6-(pyrimidin-5-yl)-5-(trifluoromethyl)-1H-benzo[d]imidazole-1-carboxamide]	< 200	7.4 (≈ 20.4 µM)
COc1cc2c(cc1-c1cncnc1)ncn2C(=O)NCC(C)C [Example 79a, N-iso-Butyl-6-methoxy-5-(pyrimidin-5-yl)-1H-benzo[d]imidazole-1-carboxamide]	200 to 1000	22.2 (≈ 68.2 µM)
COc1cc2ncn(C(=O)NCC(C)C)c2cc1-c1cncnc1 [Example 79b, N-iso-butyl-5-methoxy-6-(pyrimidin-5-yl)-1H-benzo[d]imidazole-1-carboxamide]	< 200	26.5 (≈ 81.4 µM)
CCCCNC(=O)n1c(OC)nc2ccc(-c3cncnc3)cc21 [Example 82a, N-Butyl-2-methoxy-6-(pyrimidin-5-yl)-1H-benzo[d]imidazole-1-carboxamide]	200 to 1000	21.8 (≈ 67 µM)
CCCCNC(=O)n1c(OC)nc2nc(-c3cncnc3)ccc21 [Example 85b, N-butyl-2-methoxy-5-(pyrimidin-5-yl)-1H-imidazo[4,5-b]pyridine-1-carboxamide]	< 200	54 (≈ 165 µM)
CN1CCC(Oc2cccc3c2ncn3C(=O)NCCc2ccccc2)CC1 [Example 86, 4-((1-Methylpiperidin-4-yl)oxy)-N-phenethyl-1H-benzo[d]imidazole-1-carboxamide]	< 200	26.5 (≈ 70 µM)
Cn1c(=O)n(C(=O)NCCc2ccccc2)c2cccnc21 [Example 87, 3-Methyl-2-oxo-N-phenethyl-2,3-dihydro-1H-imidazo[4,5-b]pyridine-1-carboxamide]	> 1000	14.7 (≈ 49.6 µM)
CC(C)Oc1cccc2c1ncn2C(=O)NCCc1ccccc1 [Example 90, 4-iso-Propoxy-N-phenethyl-1H-benzo[d]imidazole-1-carboxamide]	< 200	0.3 (≈ 0.928 µM)
CCOc1nc2c(F)cccc2n1C(=O)NCCc1ccccc1 [Example 92, 2-Ethoxy-4-fluoro-N-phenethyl-1H-benzo[d]imidazole-1-carboxamide]	< 200	1.2 (≈ 3.67 µM)
CCCCNC(=O)n1c(OCC)nc2ccccc21 [Example 97, N-Butyl-2-ethoxy-1H-benzo[d]imidazole-1-carboxamide]	200 to 1000	10.9 (≈ 41.7 µM)
CCCCNC(=O)n1c(OC(C)C)nc2c(OC)cccc21 [Example 97a]	200 to 1000	18 (≈ 58.9 µM)
CCCCNC(=O)n1cnc2cc(N3CCC(N4CCOCC4)CC3)ccc21 [Example 101b, N-butyl-5-(4-morpholinopiperidin-1-yl)-1H-benzo[d]imidazole-1-carboxamide]	< 200	7.5 (≈ 19.5 µM)
CCCCNC(=O)n1cnc2ccc(N3CCC(N4CCN(C)CC4)CC3)cc21 [Example 102a, N-Butyl-6-(4-(4-methylpiperazin-1-yl)piperidin-1-yl)-1H-benzo[d]imidazole-1-carboxamide]	< 200	34.8 (≈ 87.3 µM)
CCCCNC(=O)n1cnc2cc(N3CCC(N4CCN(C)CC4)CC3)ccc21 [Example 102b, N-butyl-5-(4-(4-methylpiperazin-1-yl)piperidin-1-yl)-1H-benzo[d]imidazole-1-carboxamide]	200 to 1000	36.1 (≈ 90.6 µM)
CC(C)CCNC(=O)n1cnc2cc(-c3cncnc3)ccc21 [Example 103b, N-iso-pentyl-5-(pyrimidin-5-yl)-1H-benzo[d]imidazole-1-carboxamide]	< 200	11.9 (≈ 38.5 µM)
